Results taken from patent EP3495372B1 (priority 2017, dated 2019).
Read-outs that look alike come from different tables or passages of the source. Marks after values point to notes of the source that are not given here.

How the values were obtained:
[1] = tested on: differentiated SH-SY5Y cells; assay: Apoptosis detection by Hoechst 33258 staining; type: cell-based, human; conditions: 25 and 50 µM co-treatment, 20 µM Aβ1-42, 24 h
Experimental: Apoptosis detection by Hoechst 33258 staining: Hoechst 33258 staining was used to detect apoptotic nuclei. […] Then, cells fixed with 4% paraformaldehyde in phosphate buffered saline at 4 °C for 30 min. After washing cells with PBS, the nuclear DNAs were incubated with […] Hoechst 33258 fluorescent dye for 5 min at room temperature. Cells were observed and photographed under a fluorescence microscopy (Leica® DM IL LED).

[2] = tested on: differentiated SH-SY5Y human neuroblastoma cells; assay: LDH assay, neuroprotective effects against Aβ1-42 cytotoxicity; type: cell-based; conditions: with 20 µM Aβ1-42, 24 h
Experimental: Cell cultures and differentiation: SH-SY5Y cell line were growth in DMEM:F12 (1:1) media including 10% FBS and 1% penicillin/streptomycin at 37 °C and 5% CO2 until cells reach confluence. Then, cells harvested via using trypsin/EDTA solution and transferred to 48 well plates. For differentiation, media were changed to supplemented media with 10 µg/mL retinoic acid and incubated for 5 days. Finally, media were changed into serum free media supplementing with both 10 µM retinoic acid and 25 ng/mL BDNF.
Cytotechnol. 2015; 67:299-309.
(§1) Control cells (n = 6) were cultured under normal conditions. 1% Triton X, ascorbic acid (10 µM) and hydrogen peroxide (H2O2, 25 µM) were used as positive controls for cell viability, TAC and TOS analysis, respectively.
The cultures without BLA, MEM, or LA were studied as negative control group. 1% Triton-X was added to the culture media to provide negative control group.

[3] = tested on: platelet aggregation induced by collagen; assay: Optical aggregometry in platelet-rich plasma, aggregation induced by collagen; type: cell-based, human; conditions: Collagen (10 µg/mL)
Experimental: (§2) Blood Collection and Preparation of Platelet-Rich Plasma: blood was collected from healthy and non-smoking volunteers (all volunteers have signed informed consent) into a polypropylene tube containing 0.105 M buffered sodium citrate. None of the donors had received any medication known to affect platelet function for at least 10 days before blood collection. Platelet-rich plasma (PRP) was collected by the centrifugation of whole blood at 150 g for 15 min at room temperature. Subsequently, platelet-poor plasma (PPP) was collected by the centrifugation at 2000 g for 20 min at room temperature. The platelet count was adjusted to 2x10^8 cells /ml with PPP.
(§3) Incubation of PRP with BLA and LA: PRP was incubated with BLA and LA (25, 50, and 100 µM) for 15 minutes at 37 °C. PRP without any compound was used as a control.
(§4) Optical Aggregometry in Platelet-Rich Plasma: the measurement of platelet aggregation in PRP was performed using four-channel aggregometer (APACT 4004; LABiTec, Ahrensburg, Germany). After the incubation of PRP with three different compounds, platelet aggregation was stimulated by ADP (20 µM) and Collagen (10 µg/mL) and percentage of aggregation was monitored for 10 minutes. The percentage of aggregation, slope and shape change parameters were monitored for 10 minutes. Assay was started 1 hour after blood was collected and finished within 3 hours (Hao HZ, He AD, Wang DC, Yin Z, Zhou YJ, Liu G, Liang ML, Da XW, Yao GQ, Xie W, Xiang JZ, Ming ZY. Antiplatelet activity of loureirin A by attenuating Akt phosphorylation: In vitro studies. Eur. J. Pharmacol. 2015; 746:63-9).

[4] = tested on: cultured human lymphocytes; assay: SCE assay (genotoxicity); type: cell-based
Experimental: All volunteers have signed informed consent.
SCE assay: to provide successive visualization of SCEs, 5-bromo-2-deoxyuridine was added at culture cells. Exactly 70 h and 30 min after beginning of the incubations, demecolcine ([…]) was added to the cultures. After hypotonic treatment (0.075 M KCl), followed by three repetitive cycles of fixation in methanol/acetic acid solution (3:1, v/v), centrifugation and re-suspension, the cell suspension was dropped onto chilled, grease-free microscopic slides, air-dried, aged for three days, and then differentially stained for the inspection of the SCE rate according to the fluorescence plus Giemsa (FPG) procedure. For each treatment condition, well-spread twenty-five second division metaphases containing 42-46 chromosomes per cell were scored and the values obtained were calculated as SCEs per cell.
The frequencies of sister chromatid exchanges (SCEs) with increasing BLA concentrations were investigated in cultured human lymphocytes.

[5] = tested on: differentiated SH-SY5Y cells; assay: TAC and TOS analysis in cellular model of Alzheimer's disease; type: cell-based, human; conditions: co-treatment with Aβ1-42
Experimental: TAC and TOS analysis: the automated TAC and TOS assays were carried out by commercially available kits (Rel Assay^(R) Diagnostics, Gaziantep, Turkey) on samples from the cultures.
as §1
Figure 5 and 6 show the effects of BLA and MEM treatments on TAC and TOS levels in cellular model of Alzheimer's disease, respectively.

human neuron-like cells = assay: Apoptosis-Necrosis assay (Annexin V-FITC/PI flow cytometry); type: cell-based; conditions: concentration not given
Experimental: Apoptosis-Necrosis assay: the frequencies of viable, apoptotic and necrotic cells were detected with the Annexin V-FITC apoptosis detection Kit I (BD Pharmingen, USA). Briefly, 5 x 10^4 cells were collected by centrifugation and cells resuspended in 500 µL of 1X binding buffer. Then, 5 µL of Annexin V-FITC and 5 µl of propidium iodide (PI 50 µg/ml) were added to the cultures and incubated 5 min in the dark. After that, cells fixed with 4% paraformaldehyde in phosphate buffered saline at 4 °C for 30 min. Cells from each well were stained according to the manufacturer's instructions and analyzed using a flow cytometer (CyFlow Cube 6, Partec, Germany). A computer system was used for data acquisition and analysis. Four different populations of cells are detected with the Annexin V-FITC kit: viable cells that are annexin negative and PI negative and express no fluorescence, early apoptotic cells that are annexin positive and PI negative and that express green fluorescence, late apoptotic/necrotic cells that are annexin positive and PI positive and that express green and orange fluorescence, necrotic cells that are annexin negative and PI positive and that express orange fluorescence (Majstorovic I, Vucevic D, Pavlovic B, Vasilijic S, Colic M. An anti-DEC-205 monoclonal antibody stimulates binding of thymocytes to rat thymic dendritic cells and promotes apoptosis of thymocytes. Cent Eur J Immunol. 2014; 39:411-418) .
BLA was considered as more able to protect the human neuron-like cells from Aβ1-42-induced necrosis and late apoptosis than LA or MEM.

[6] = tested on: platelet aggregation induced by ADP; assay: Optical aggregometry in platelet-rich plasma, aggregation induced by ADP; type: cell-based, human; conditions: ADP (20 µM)
Experimental: as §2, §3, §4

Row | Structure (SMILES) | nuclear integrity and apoptosis by Aβ1-42 (Hoechst 33258) [1] | increase in the cell viability (inhibited LDH release) ([2]; 25 µM) | increase in the cell viability (inhibited LDH release) ([2]; 50 µM) | increase in the cell viability (inhibited LDH release) ([2]; 100 µM) | Max. Aggregation (%) ([3]; 25 µM) | Shape change (%) ([3]; 25 µM) | Slope (%) ([3]; 25 µM) | Max. Aggregation (%) ([3]; 50 µM) | Shape change (%) ([3]; 50 µM) | Slope (%) ([3]; 50 µM) | Max. Aggregation (%) ([3]; 100 µM) | Shape change (%) ([3]; 100 µM) | Slope (%) ([3]; 100 µM) | Aβ1-42-induced decreases of TAC and increases of TOS levels [5] | decreased the necrotic cell percentage by Aβ1-42 (human neuron-like cells) | Max. Aggregation (%) ([6]; 25 µM) | Shape change (%) ([6]; 25 µM) | Slope (%) ([6]; 25 µM) | Max. Aggregation (%) ([6]; 50 µM) | Shape change (%) ([6]; 50 µM) | further results
1 | CC1(C)C2CC3OB(CNC(=O)CCCC[C@H]4CCSS4)O[C@]3(C)C1C2 (stereo partly drawn) [BLA, 5-((S)-1,2-dithiolan-3-yl)-N-(((3aR)-3a,5,5-trimethylhexahydro-4,6-methanobenzo[d][1,3,2]dioxaborol-2-yl)methyl)pentanamide] | protected nuclear integrity and inhibited apoptosis | 62.91% | 67.37% | 70.65% | 45.7* % | 24.7* % | 41.4* % | 31.8* % | 10.2* % | 30.8* % | 7.9* % | 5.6* % | 25.5* % | modulated | 68.38% | 49,8* % | 12.1* % | 66.7* % | 41.3* % | 10.3* % | frequencies of sister chromatid exchanges (SCEs) ([4]; versus control group, P > 0.05): not significant differences; Slope (%) ([6]; 50 µM): 51.5* %; Max. Aggregation (%) ([6]; 100 µM): 32.2* %; Shape change (%) ([6]; 100 µM): 6.8* %; Slope (%) ([6]; 100 µM): 47.3* %
2 | O=C(O)CCCCC1CCSS1 (centres unmarked) [LA, 1,2-dithiolane-3-pentanoic acid] | protected nuclear integrity and inhibited apoptosis | 53.05% | 58.68% | 59.86% | 47.9* % | 27.9* % | 43.6* % | 41.6* % | 23.4* % | 37.2* % | 35.8* % | 20.8* % | 31,4* % | modulated | 61.67% | 55.8* % | 17.4* % | 69.8* % | 47.8* % | 14.5* % | frequencies of sister chromatid exchanges (SCEs) [4]: not higher than the control group; Slope (%) ([6]; 50 µM): 61.4* %; Max. Aggregation (%) ([6]; 100 µM): 44.6* %; Shape change (%) ([6]; 100 µM): 13.8* %; Slope (%) ([6]; 100 µM): 58.0* %
